Experimental data published in US20210063414A1, “METHODS FOR PREVENTING AND/OR TREATING BONE LOSS CONDITIONS BY MODULATING IRISIN” (Dana-Farber Cancer Institute, Inc., priority 2018, published 2021).

Test system: sclerostin mRNA in MLO-Y4 cells
Test: Sclerostin mRNA in MLO-Y4 cells, qRT-PCR
Format: cell-based, mouse
Details: MLO-Y4, inhibitor pre-treatment 10 minutes, irisin 16 hours
Experimental: Cells were stained with Hoechst 33342 and Eth-D1, and analyzed to determine the percentage of cell death. *: p<0.05, ***: p<0.001 vs 0.3 mM H2O2 treated condition. […] MLO-Y4 cells were seeded and incubated until 60% cell density. The cells were incubated with Freestyle293 medium for 4 hours and were treated with indicated concentrations of irisin for 16 hours. Sclerostin mRNA level was analyzed by qRT-PCR. Cyclophilin was used as a control house-keeping gene.
MLO-Y4 cells were incubated in serum free medium for 3 hours followed by treatment of indicated concentrations of irisin for indicated time (FIG. 6A), or followed by treatment of 0 or 10 nM irisin in the presence of indicated integrin inhibitors or their control peptide for 16 hours (FIG. 6B). Sclerostin mRNA level was analyzed by qPCR.
Certain materials and methods were used to generate the results described herein. For example, the data shown in FIG. 1A resulted from MLO-Y4 (an osteocyte-like cell line) cells treated with the indicated concentration of irisin and hydrogen peroxide for 4 hours. Cells were stained with Hoechst 33342 (ThermoFisher Scientific, catalog number H3570) and Eth-D1 (ThermoFisher Scientific, catalog number E1169) and analyzed to determine the percentage of cell death using ImageJ. The data shown in FIG. 2D resulted from MLO-Y4 incubated in serum free medium (FreeStyle™ 293 expression medium, ThermoFisher Scientific, catalog number 12338018) for 4 hours followed by treatment of indicated concentrations of irisin for 10 minutes. Cells were lysed to detect the indicated protein level using immunoblot analysis (Cell Signaling Technology, catalog numbers 3283S, 3285S, 8467S, 3553S, 9198S, and 9104S; Abcam, catalog number ab49900-100ul). The data shown in FIG. 3 resulted from 3T3-F442A cells incubated in serum free medium for 4 hours followed by treatment of indicated concentrations of irisin for 10 minutes. Cells were lysed by RIPA buffer to detect the indicated protein level using immunoblot analysis. The data shown in FIG. 4 were generated from 100 nM flag-tagged irisin (Enzo life sciences, catalog number ADI-908-307-3010) incubated with 5 nM of the indicated 6 his-tag integrins (R & D Systems Inc., catalog numbers 7064-AB-025, 5668-A4-050, 5438-A9-050, 6357-AB-050, and 6579-AV-025) in the presence of RGDS peptide (R & D Systems Inc., catalog number 3498/10) or its control peptide (Enzo Life Sciences, catalog Number BML-P701-0005) followed by immunoprecipitation using 6 his-tag beads (ThermoFisher Scientific, catalog number R901-01). Co-precipitated irisin was analyzed by immunoblot analysis against flag tag (Sigma Aldrich, catalog number A8592). The data shown in FIGS. 5A and 5B were generated from MLO-Y4 cells treated and analyzed as in the experiments used to generate the data shown in FIG. 2D, except that pre-treatment of 100 nM RGDS (FIG. 5A) or echistatin (R & D Systems Inc., catalog number 3202/100U) (FIG. 5B) for 10 minutes was performed before irisin treatment. The data shown in FIGS. 6A and 6B were generated from MLO-Y4 cells incubated in serum free medium for 3 hours followed by treatment of indicated time of 10 nM irisin for 16 hours. RNAs were extracted from the cells and the sclerostin mRNA level was analyzed by qPCR (FIG. 6A) or treated and analyzed as in (FIG. 6A), except that pre-treatment of 10 μM RGDS, RGDyK (Selleck, catalog number S7844), or echistatin was performed for 10 minutes before irisin treatment. […] Sclerostin mRNA level was analyzed by qPCR (FIG. 7A). […]

Compound | effect of integrin inhibitor on irisin-induced sclerostin mRNA | effect of integrin inhibitor on irisin-induced sclerostin mRNA (listed as RGDyK circular peptide) | effect of integrin inhibitor on irisin-induced sclerostin mRNA (listed as RGD peptide)
N=C(N)NCCC[C@@H]1NC(=O)[C@H](CCCCN)NC(=O)[C@@H](Cc2ccc(O)cc2)NC(=O)[C@H](CC(=O)O)NC(=O)CNC1=O [cyclo RGDyK] | prevented sclerostin induction | sensitive | –
RGDS peptide: classical integrin competitive inhibitory peptide, commercially available form of the RGD peptide | sensitive | – | prevented sclerostin induction
